Experimental data: patent publication US12612368B2 (Remedy Plan, Inc., priority 2019, dated 2026)
Read-outs that look alike come from different tables or passages of the source.

Columns and labels:
NAMPT = target: T1, NAMPT (Homo sapiens, UniProt P43490); assay: NAMPT Activity Assay (Abcam #ab221819); type: biochemical; conditions: purified NAMPT, two-step reaction, OD450 nm; percent inhibition vs no drug; compound concentration not stated
T1 construct: purchased Abcam ab221819

MV-4-11 cells = assay: Cell viability in MV-4-11 cells (CellTiter Glo2); type: cell-based; conditions: Homo sapiens, MV4-11, 96 h, 8-point dose response, 4 days
Experimental: Approximately 10,000 MV-4-11 cells per well of a 96-well plate were treated with DMSO (no drug control) or each compound in Tables E1 and E2 in an 8-point dose response for 4 days, Cell viability was measured using CellTiter Glo2. The ICse of each compound was determined using CDD Vault.

[1] = CellTiter Glo2 (Table E2), read-out: MV-4-11 Cell Viability, MV-4-11 IC50
[2] = CellTiter Glo2 (Table E1), read-out: MV-4-11 IC50

T1 sequence (P43490 whole entry): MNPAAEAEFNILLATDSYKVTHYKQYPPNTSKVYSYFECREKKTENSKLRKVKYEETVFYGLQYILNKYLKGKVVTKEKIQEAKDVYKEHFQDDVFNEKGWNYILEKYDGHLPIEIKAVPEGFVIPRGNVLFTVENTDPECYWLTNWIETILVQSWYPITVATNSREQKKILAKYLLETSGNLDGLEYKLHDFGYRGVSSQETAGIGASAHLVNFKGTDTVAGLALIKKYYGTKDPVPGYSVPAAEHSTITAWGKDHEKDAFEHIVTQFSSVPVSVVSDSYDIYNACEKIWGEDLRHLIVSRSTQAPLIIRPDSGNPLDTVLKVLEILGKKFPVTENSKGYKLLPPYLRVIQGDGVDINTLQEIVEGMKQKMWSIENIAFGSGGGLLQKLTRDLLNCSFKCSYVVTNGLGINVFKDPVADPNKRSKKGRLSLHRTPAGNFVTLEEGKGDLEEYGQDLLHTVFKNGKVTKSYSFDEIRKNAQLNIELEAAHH

NAMPT Inhibition Code (NAMPT)	IC50 (MV-4-11 cells; [1])	IC50 (MV-4-11 cells; [2])	Compound
C (C = ≥66% inhibition)	0.00239 µM		CC(=O)N(c1ccc(-c2ccc(C(=O)NCc3cccnc3)cn2)cc1Cl)C(C)C [Compound I-596, 6-[4-[Acetyl(isopropyl)amino]-3-chloro-phenyl]-N-(3-pyridylmethyl)pyridine-3-carboxamide]
A (A = <33% inhibition)	0.871 µM		COC(=O)NCCN(C(C)=O)c1ccc(-c2ccc(C(=O)NCc3cccnc3)cn2)cc1 [Compound I-466, Methyl N-[2-[N-acetyl-4-[5-(3-pyridylmethylcarbamoyl)-2-pyridyl]anilino]ethyl]carbamate]
C (C = ≥66% inhibition)			CC(=O)N(CC1CC1)c1ccc(-c2ccc(C(=O)NCc3ccc(F)nc3)cn2)cc1Cl [Compound I-696, 6-[4-[Acetyl(cyclopropylmethyl)amino]-3-chloro-phenyl]-N-[(6-fluoro-3-pyridyl)methyl]pyridine-3-carboxamide]
B (B = ≥33 to <66% inhibition)	0.358 µM		CC(=O)N(CCC(F)F)c1ccc(-c2ccc(C(=O)NCc3cccnc3)cn2)cc1 [Compound I-629, 6-[4-[Acetyl(3,3-difluoropropyl)amino]phenyl]-N-(3-pyridylmethyl)pyridine-3-carboxamide]
C (C = ≥66% inhibition)	0.0237 µM		CC(=O)N(c1ccc(-c2ccc(C(=O)NCc3cccnc3)cn2)cc1F)C(C)C [Compound I-626, 6-[4-[Acetyl(isopropyl)amino]-3-fluoro-phenyl]-N-(3-pyridylmethyl)pyridine-3-carboxamide]
A (A = <33% inhibition)		3.17 µM	CCOC(=O)N(C)c1ccc(-c2ccc(C(=O)NCc3cccnc3)cn2)cc1 [Compound I-389, ethyl N-methyl-N-[4-[5-(3-pyridylmethylcarbamoyl)-2-pyridyl]phenyl]carbamate]
B (B = ≥33 to <66% inhibition)		0.117 µM	CC(=O)N(CC1CC1)c1ccc(-c2ccc(C(=O)NCc3cccnc3)cn2)cc1 [Compound I-421, 6-[4-[acetyl(cyclopropylmethyl)amino]phenyl]-N-(3-pyridylmethyl)pyridine-3-carboxamide]
C (C = ≥66% inhibition)	0.00811 µM		CC(=O)N(CC1COC1)c1ccc(-c2ccc(C(=O)NCc3cccnc3)cn2)cc1Cl [Compound I-620, 6-[4-[Acetyl(oxetan-3-ylmethyl)amino]-3-chloro-phenyl]-N-(3-pyridylmethyl)pyridine-3-carboxamide]
A (A = <33% inhibition)	1.71 µM		CCCN(C(C)=O)c1ccc(-c2ccc(C(=O)NCc3cccnc3C)cn2)cc1Cl [Compound I-458, 6-[4-[acetyl(propyl)amino]-3-chloro-phenyl]-N-[(2-methyl-3-pyridyl)methyl]pyridine-3-carboxamide]
B (B = ≥33 to <66% inhibition)	0.226 µM		CC(=O)N(CCC(F)(F)F)c1ccc(-c2ccc(C(=O)NCc3cccnc3)cn2)cc1 [Compound I-482, 6-[4-[Acetyl(3,3,3-trifluoropropyl)amino]phenyl]-N-(3-pyridylmethyl)pyridine-3-carboxamide]
C (C = ≥66% inhibition)	0.0211 µM		CCCN(C(C)=O)c1ccc(-c2ccc(C(=O)NCc3cccnc3)cn2)cc1Cl [Compound I-606, 6-[4-[Acetyl(propyl)amino]-3-chloro-phenyl]-N-(3-pyridylmethyl)pyridine-3-carboxamide]
C (C = ≥66% inhibition)			CC(=O)N(CC1CC1)c1ccc(-c2ccc(C(=O)NCc3ccc(C)nc3)cn2)cc1Cl [Compound I-697, 6-[4-[Acetyl(cyclopropylmethyl)amino]-3-chloro-phenyl]-N-[(6-methyl-3-pyridyl)methyl]pyridine-3-carboxamide]
A (A = <33% inhibition)			CC(=O)N(CC1CC1)c1ccc(-c2ccc(C(=O)NCc3ccccn3)cn2)cc1Cl [Compound I-698, 6-[4-[Acetyl(cyclopropylmethyl)amino]-3-chloro-phenyl]-N-(2-pyridylmethyl)pyridine-3-carboxamide]

The remaining lines, values behind:

Compound	NAMPT Inhibition Code (NAMPT)	IC50 (MV-4-11 cells; [1])	IC50 (MV-4-11 cells; [2])
CCOC(=O)NCCN(C(C)=O)c1ccc(-c2ccc(C(=O)NCc3cccnc3C)cn2)cc1C [Compound I-486, Ethyl N-[2-[N-acetyl-2-methyl-4-[5-[(2-methyl-3-pyridyl)methylcarbamoyl]-2-pyridyl]anilino]ethyl]carbamate]	A (A = <33% inhibition)	2.7 µM	
CCC(=O)N(C)c1ccc(-c2ccc(C(=O)NCc3ccc(C)nc3)cn2)cc1C [Compound I-450]	B (B = ≥33 to <66% inhibition)	7.63 µM	
CC(=O)N(C)c1ccc(-c2ccc(C(=O)NCc3cccnc3C)cn2)cc1C [Compound I-428, 6-[4-[acetyl(methyl)amino]-3-methyl-phenyl]-N-[(2-methyl-3-pyridyl)methyl]pyridine-3-carboxamide]			3.46 µM
CC(=O)N(CC1CC(F)(F)C1)c1ccc(-c2ccc(C(=O)NCc3cccnc3C)cn2)cc1C [Compound I-485, 6-[4-[Acetyl-[(3,3-difluorocyclobutyl)methyl]amino]-3-methyl-phenyl]-N-[(2-methyl-3-pyridyl)methyl]pyridine-3-carboxamide]	A (A = <33% inhibition)	1.34 µM	
CCC(=O)N(C)c1ccc(-c2ccc(C(=O)NCc3cccnc3C)cc2)cc1Cl [Compound I-460, 4-[3-chloro-4-[methyl(propanoyl)amino]phenyl]-N-[(2-methyl-3-pyridyl)methyl]benzamide]	A (A = <33% inhibition)	> 0.694 µM	
CC(=O)N(CC1COC1)c1ccc(-c2ccc(C(=O)NCc3cccnc3)cn2)cc1 [Compound I-447, 6-[4-[acetyl(oxetan-3-ylmethyl)amino]phenyl]-N-(3-pyridylmethyl)pyridine-3-carboxamide]	A (A = <33% inhibition)	0.493 µM	
CCC(=O)N(C)c1ccc(-c2ccc(C(=O)NCc3ccc(F)nc3C)cn2)cc1 [Compound I-390, N-[(6-fluoro-2-methyl-3-pyridyl)methyl]-6-[4-[methyl(propanoyl)amino]phenyl]pyridine-3-carboxamide]	A (A = <33% inhibition)		4.26 µM
CC(=O)N(C)Cc1ccc(-c2ccc(C(=O)NCc3cccnc3)nc2)cc1 [Compound I-319, 5-[4-[[acetyl(methyl)amino]methyl]phenyl]-N-(3-pyridylmethyl)pyridine-2-carboxamide]			10 µM
CCN(C(C)=O)c1ccc(-c2ccc(C(=O)NCc3cccnc3C)cn2)cc1C [Compound I-429, 6-[4-[acetyl(ethyl)amino]-3-methyl-phenyl]-N-[(2-methyl-3-pyridyl)methyl]pyridine-3-carboxamide]			4.03 µM
CC(=O)N(C)c1ccc(-c2ccc(C(=O)NCc3cccnc3F)cn2)cc1C [Compound I-436, 6-[4-[acetyl(methyl)amino]-3-methyl-phenyl]-N-[(2-fluoro-3-pyridyl)methyl]pyridine-3-carboxamide]			13.8 µM
CC(=O)N(CC1CC1)c1ccc(-c2ccc(C(=O)Nc3cnc4[nH]ncc4c3)cn2)cc1Cl [Compound I-693, 6-[4-[Acetyl(cyclopropylmethyl)amino]-3-chloro-phenyl]-N-(1H-pyrazolo[3,4-b]pyridin-5-yl)pyridine-3-carboxamide]	B (B = ≥33 to <66% inhibition)		
